Results reported in patent US20190119200A1, “TERTIARY AMIDES AND METHOD OF USE” (AbbVie Inc., priority 2016, published 2019).

Molecular target: T1, LPAR1 (Homo sapiens, UniProt Q92633)
T1 construct: host or cells: U2OS
Assay: LPAR1 FLIPR Assay
Assay type: cell-based
Settings: U2OS cells stably expressing LPAR1, LPA (EC80), Calcium 6 FLIPR dye; for Emax: read-out: Maximum Inhibition
Procedure: U2OS cells stably expressing LPAR1 (Life Technologies #K1519A) were plated at 12000 cells/well in growth medium (McCoy's 5A medium(Life Technologies 16600-082)) with 10% dFBS (Life Technologies 26400-036), 0.1 mM non-essential amino acids, 25 mM HEPES, 1 mM sodium pyruvate, 1% penicillin/streptomycin, 50 μg/mL hygromycin, and 100 μg/mL Geneticin® in black-walled, clear-bottom 384-well plates (Corning #3683) and incubated in humidified 5% CO2 at 37° C. overnight. On the day of the assay, medium was removed and 30 μL of 5% Calcium 6 FLIPR dye in assay buffer-HBSS (Life Technologies #14025) containing 20 mM HEPES (Life Technologies #15630-080) was added to the cells. Cells were incubated at 37° C. in the dark for 2 hours. Compounds were 3-fold serial diluted from 10 mM for 11-points using dimethyl sulfoxide. 1 μL of compound in DMSO was diluted in 82.3 μL assay buffer immediately before the assay. Using a FLIPR® TETRA® system, 15 μL of the (4×) compound solutions were first added to the cells, then 15 μL of LPA (EC80) diluted in of assay buffer supplemented with 0.1% BSA was added 3 minutes later to activate the receptor. Changes in fluorescence were measured at wavelengths of 515-575 nm over the course of the experimental run. IC50 values were calculated from curve fits of the ratio data using a four-parameter logistic Hill equation (Assay Explorer 3.3 Client).

T1 sequence (Q92633 whole entry): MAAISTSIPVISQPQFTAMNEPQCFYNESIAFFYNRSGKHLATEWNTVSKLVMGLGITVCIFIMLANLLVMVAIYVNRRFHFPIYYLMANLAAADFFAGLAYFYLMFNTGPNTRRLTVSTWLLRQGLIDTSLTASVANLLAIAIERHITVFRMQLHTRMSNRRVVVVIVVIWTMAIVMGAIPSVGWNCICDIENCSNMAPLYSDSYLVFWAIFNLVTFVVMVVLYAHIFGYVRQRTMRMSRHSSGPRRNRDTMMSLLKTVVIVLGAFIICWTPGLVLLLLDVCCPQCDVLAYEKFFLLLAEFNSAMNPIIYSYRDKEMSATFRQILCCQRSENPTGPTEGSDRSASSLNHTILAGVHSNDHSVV

IC50 | Emax | Maximum Inhibition | Compound
1100 nM | 62% | – | O=C(O)CCCCN(CCCc1ccccc1)C(=O)C1CC(=O)Nc2ccc(F)cc21 (stereo not drawn) [Example 168, 5-[(6-fluoro-2-oxo-1,2,3,4-tetrahydroquinoline-4-carbonyl)(3-phenylpropyl)amino]pentanoic Acid]
766 nM | 55% | – | COc1ccc(C2(C(=O)N(CCCCC(=O)O)CCCc3ccccc3)CCCC2)cc1 [Example 106, 5-{[1-(4-methoxyphenyl)cyclopentane-1-carbonyl](3-phenylpropyl)amino}pentanoic Acid]
600 nM | 83% | – | COc1cc(C(=O)N(CCCCC(=O)O)CCCc2ccc(Cl)cc2)cc(OC)c1C [Example 36, 5-{[3-(4-chlorophenyl)propyl](3,5-dimethoxy-4-methylbenzoyl)amino}pentanoic Acid]
128 nM | 66% | – | COc1cc(C(=O)N(CCCc2ccccc2)CC(=O)N[C@@H](Cc2ccccc2)C(=O)O)cc(OC)c1C [Example 46, N-(3,5-dimethoxy-4-methylbenzoyl)-N-(3-phenylpropyl)glycylphenylalanine]
293 nM | 91% | – | COc1cc(C(=O)N(CCCCC(=O)O)CCCc2ccccc2)cc(OC)c1OCCO [Example 88, 5-{[4-(2-hydroxyethoxy)-3,5-dimethoxybenzoyl](3-phenylpropyl)amino}pentanoic Acid]
511 nM | – | 98% | COc1ccc(C2(C(=O)N(CCCCC(=O)O)CCCc3ccccc3)CC(OC)C2)cc1 (stereo not drawn) [Example 158, 5-{[cis-3-methoxy-1-(4-methoxyphenyl)cyclobutane-1-carbonyl](3-phenylpropyl)amino}pentanoic Acid]
> 10000 nM | 30% | – | COc1cc(C(=O)N(CCCc2ccccc2)CCOC(=O)NS(=O)(=O)c2ccc(F)cc2)cc(OC)c1C [Example 183, 2-[(3,5-dimethoxy-4-methylbenzoyl)(3-phenylpropyl)amino]ethyl (4-fluorobenzene-1-sulfonyl)carbamate]
503 nM | 86% | – | COc1cc(C(=O)N(C/C=C/CC(=O)O)CCCc2ccccc2)cc(OC)c1C [Example 121, (3E)-5-[(3,5-dimethoxy-4-methylbenzoyl)(3-phenylpropyl)amino]pent-3-enoic Acid]
290 nM | 59% | – | COc1cc(OC)cc(C(=O)N(CCCc2ccccc2)CCOCC(=O)O)c1 [Example 15, {2-[(3,5-dimethoxybenzoyl)(3-phenylpropyl)amino]ethoxy}acetic Acid]
671 nM | 76% | – | COc1cc(C(=O)N(CCCc2ccc(F)cc2F)CCSCC(=O)O)cc(OC)c1C [Example 114, [(2-{[3-(2,4-difluorophenyl)propyl](3,5-dimethoxy-4-methylbenzoyl)amino}ethyl)sulfanyl]acetic Acid]
312 nM | 71% | – | COc1ccc([C@@H](OC)C(=O)N(CCCCC(=O)O)CCCc2ccccc2)cc1 [Example 66, 5-{[(2R)-2-methoxy-2-(4-methoxyphenyl)acetyl](3-phenylpropyl)amino}pentanoic Acid]
302 nM | – | 85% | COc1ccc(C2(C(=O)N(CCCCC(=O)O)CCCc3ccccc3)CC(OC)C2)cc1 (stereo not drawn) [Example 159, 5-{[trans-3-methoxy-1-(4-methoxyphenyl)cyclobutane-1-carbonyl](3-phenylpropyl)amino}pentanoic Acid]
5020 nM | 49% | – | COc1ccc2c(C(=O)N(CCCCC(=O)O)CCCc3ccccc3)c[nH]c2c1 [Example 65, 5-[(6-methoxy-1H-indole-3-carbonyl)(3-phenylpropyl)amino]pentanoic Acid]
29300 nM | 45% | – | COc1cc(C(=O)N(CCCCC(=O)O)CCCc2cccc(C(F)(F)F)c2)cc(OC)c1C [Example 40, 5-[(3,5-dimethoxy-4-methylbenzoyl){3-[3-(trifluoromethyl)phenyl]propyl}amino]pentanoic Acid]
224 nM | 82% | – | CCOc1cc(C(=O)N(CCCCC(=O)O)CCCc2ccccc2)cc(OCC)c1OCC [Example 21, 5-[(3-phenylpropyl)(3,4,5-triethoxybenzoyl)amino]pentanoic Acid]
6950 nM | 59% | – | COc1cc(OC)cc(C(=O)N(CCCc2ccccc2)CCSCC(=O)O)c1 [Example 101, ({2-[(3,5-dimethoxybenzoyl)(3-phenylpropyl)amino]ethyl}sulfanyl)acetic Acid]
1060 nM | 65% | – | O=C(O)CCCCN(CCCc1ccccc1)C(=O)C1(c2ccc3c(c2)OCO3)CC1 [Example 27, 5-{[1-(2H-1,3-benzodioxol-5-yl)cyclopropane-1-carbonyl](3-phenylpropyl)amino}pentanoic Acid]

IC50 | Emax | Maximum Inhibition | Compound
8020 nM | 63% | – | Cc1nc2c(C(=O)N(CCCCC(=O)O)CCCc3ccccc3)cccc2c(=O)[nH]1 [Example 160, 5-[(2-methyl-4-oxo-3,4-dihydroquinazoline-8-carbonyl)(3-phenylpropyl)amino]pentanoic Acid]
3090 nM | 71% | – | Cn1cc(C(=O)N(CCCCC(=O)O)CCCc2ccccc2)c2ccccc2c1=O [Example 169, 5-[(2-methyl-1-oxo-1,2-dihydroisoquinoline-4-carbonyl)(3-phenylpropyl)amino]pentanoic Acid]
6170 nM | 48% | – | COc1c(F)cc(C(=O)N(CCCCC(=O)O)CCCc2ccccc2)cc1F [Example 13, 5-[(3,5-difluoro-4-methoxybenzoyl)(3-phenylpropyl)amino]pentanoic Acid]
21 nM | 99% | – | COc1cc(C(=O)N(CCCc2ccccc2)CCOC(C)(C)C(=O)NS(C)(=O)=O)cc(OC)c1C [Example 156, N-[2-({1-[(methanesulfonyl)amino]-2-methyl-1-oxopropan-2-yl}oxy)ethyl]-3,5-dimethoxy-4-methyl-N-(3-phenylpropyl)benzamide]
26 nM | 99% | – | COc1cc(C(=O)N(CCCc2ccccc2)CCCC(C)P(=O)(O)O)cc(OC)c1C (stereo not drawn) [Example 72, {5-[(3,5-dimethoxy-4-methylbenzoyl)(3-phenylpropyl)amino]pentan-2-yl}phosphonic Acid]
235 nM | 57% | – | COc1cc(C(=O)N(CCCCC(=O)O)CCCc2ccc(C)o2)cc(OC)c1C(F)(F)F [Example 177, 5-{[3,5-dimethoxy-4-(trifluoromethyl)benzoyl][3-(5-methylfuran-2-yl)propyl]amino}pentanoic Acid]
29300 nM | 48% | – | O=C(O)CCCCN(CCCc1ccccc1)C(=O)C1(c2ccc(OC(F)(F)F)cc2)CC1 [Example 25, 5-[(3-phenylpropyl){1-[4-(trifluoromethoxy)phenyl]cyclopropane-1-carbonyl}amino]pentanoic Acid]
12 nM | 91% | – | COc1cc(C(=O)N(CCCCP(=O)(O)O)CCCc2ccccc2)cc(OC)c1C [Example 71, {4-[(3,5-dimethoxy-4-methylbenzoyl)(3-phenylpropyl)amino]butyl}phosphonic Acid]
237 nM | 76% | – | COc1cc(C(=O)N(CCCc2ccccc2)C(C)CCCC(=O)O)cc(OC)c1C (stereo not drawn) [Example 164, 5-[(3,5-dimethoxy-4-methylbenzoyl)(3-phenylpropyl)amino]hexanoic Acid]
238 nM | 62% | – | COc1cc(C(=O)N(CCCc2ccccc2)CC(=O)NCC(=O)O)cc(OC)c1C [Example 51, N-(3,5-dimethoxy-4-methylbenzoyl)-N-(3-phenylpropyl)glycylglycine]
225 nM | 69% | – | COc1cc(C(=O)N(CCCCC(=O)O)[C@@H](C)CCc2ccccc2)cc(OC)c1C [Example 154, 5-{(3,5-dimethoxy-4-methylbenzoyl) [(2S)-4-phenylbutan-2-yl]amino}pentanoic Acid]
24300 nM | 58% | – | COc1cc(C(=O)N(CCCCC(=O)O)CCCc2ccc(Cl)cc2Cl)cc(OC)c1C [Example 49, 5-{[3-(2,4-dichlorophenyl)propyl](3,5-dimethoxy-4-methylbenzoyl)amino}pentanoic Acid]
> 30000 nM | 50% | – | O=C(O)CCCCN(CCCc1ccccc1)C(=O)c1cccc(OC(F)(F)F)c1 [Example 26, 5-{(3-phenylpropyl)[3-(trifluoromethoxy)benzoyl]amino}pentanoic Acid]
1230 nM | 54% | – | O=C(O)CCCCN(CCCc1ccccc1)C(=O)C1(c2ccncc2)CC1 [Example 64, 5-{(3-phenylpropyl)[1-(pyridin-4-yl)cyclopropane-1-carbonyl]amino}pentanoic Acid]
239 nM | 63% | – | COc1cc(C(=O)N(CCCc2ccccc2)CC[S+]([O-])CC(=O)O)cc(OC)c1C (stereo not drawn) [Example 53, {2-[(3,5-dimethoxy-4-methylbenzoyl)(3-phenylpropyl)amino]ethanesulfinyl}acetic Acid]
398 nM | – | 72% | 5-[(3-methoxy-4-methylbenzoyl)(3-phenylpropyl)amino]pentanoic Acid [Example 28]
